# Results reported in US10905738B2, “Synthetic peptides, prodrugs, pharmaceutical compositions and uses” (Biozeus Desenvolvimento De Produtos Biofarmacêuticos, priority 2018, dated 2021).
# Where a SMILES comes first, the peptide text is derived from it.
# Tested on: smooth muscle of pulmonary arteries
# Assay: relaxation of pulmonary arteries contracted with phenylephrine ex vivo
# Set-up: species or system male Wistar rats
# Details: n = 9; for pEC50: pulmonary arteries contracted with phenylephrine, peptides 1 nM-10 μM, mean±SEM; for Effectiveness (Emax) (%): relaxation percentage related to maximum phenylephrine contraction
# From the text: The ex vivo model of pulmonary artery smooth muscle contraction with phenylephrine is very useful to screen candidate compounds for lung diseases that demand vasodilating effects (ALENCAR, A. K., PEREIRA, S. L., MONTAGNOLI, T. L., MAIA, R. C., KUMMERLE, A. E., LANDGRAF, S. S., CARUSO-NEVES, C., FERRAZ, E. B., TESCH, R., NASCIMENTO, J. H., DE SANT'ANNA, C. M., FRAGA, C. A., BARREIRO, E. J., SUDO, R. T., ZAPATA-SUDO, G. Beneficial effects of a novel agonist of the adenosine A2A receptor on monocrotaline-induced pulmonary hypertension in rats. Br J Pharmacol, 169: 953-62. 2013).
# Rats were anesthetized with midazolam and ketamine (2 mg/kg and 100 mg/kg, respectively) via intraperitoneal administration. After infusion of a lethal dose of sodium thiopental via intraperitoneal administration (50 mg/kg), the trunk of the pulmonary artery was carefully removed via sternotomy. The pulmonary artery was carefully dissected and the connective tissue removed. The arteries were connected to a force transductor, positioned in vertical chambers filled with Krebs solution, oxygenated and kept at 37° C.
# After a stabilization period of 2 hours at a tension of 1.5 grams, the arteries were exposed to increasing doses of phenylephrine (1 nM-10 μM) in order to obtain maximum smooth muscle contraction and then exposed to increasing doses of selected peptides in the concentrations of 1 nM-10 μM each (n=9). The tension generated by the pulmonary artery was evaluated at intervals of 5 minutes for each dose (ALENCAR, A. K., PEREIRA, S. L., MONTAGNOLI, T. L., MAIA, R. C., KUMMERLE, A. E., LANDGRAF, S. S., CARUSO-NEVES, C., FERRAZ, E. B., TESCH, R., NASCIMENTO, J. H., DE SANT'ANNA, C. M., FRAGA, C. A., BARREIRO, E. J., SUDO, R. T., ZAPATA-SUDO, G. Beneficial effects of a novel agonist of the adenosine A2A receptor on monocrotaline-induced pulmonary hypertension in rats. Br J Pharmacol 169: 953-62. 2013; ALENCAR, A. K., PEREIRA, S. L., DA SILVA, F. E., MENDES, L. V., CUNHA VDO, M., LIMA, L. M., MONTAGNOLI, T. L., CARUSO-NEVES, C., FERRAZ, E. B., TESCH, R., NASCIMENTO, J. H., SANT'ANNA, C. M., FRAGA, C. A., BARREIRO, E. J., SUDO, R. T., ZAPATA-SUDO, G. N-acylhydrazone derivative ameliorates monocrotaline-induced pulmonary hypertension through the modulation of adenosine AA2R activity. International Journal of Cardiology, 173(2): 154-62. 2014).
# Potency values are shown as the negative logarithm of the concentration that reduced the voltage to 50% of the maximum phenylephrine-induced contraction (pEC50), and they are expressed as mean±SEM. The maximum contraction achieved in a given artery was considered to be 100% of contraction, and the effectiveness (Emax) was expressed as the relaxation percentage related to this maximum value. The results were calculated from at least 3 independent tests using the sigmoid non-linear regression equation, and the statistical analysis of the concentration curve was done by performing a nonlinear fit of the logarithmic of the agonist versus response. All the above calculations were performed on the software Graph Prism 5.0 (GraphPad Software, La Jolla, Calif., USA). Tension analysis was performed on the software LabChart7 (AD Instruments, Sydney, Australia). As a cutoff to determine biological significance, we considered pulmonary artery relaxation values above 30% as biologically relevant, considered those as active and then calculated the Emax values (SUN, C. K., LIN, Y. C., YUEN, C. M., CHUA, S., CHANG, L. T., SHEU, J. J., LEE, F. Y., FU, M., LEU, S., YIP, H. K. Enhanced protection against pulmonary hypertension with sildenafil and endothelial progenitor cell in rats. International journal of cardiology, 162(1): 45-58. 2012; ALENCAR, A. K., PEREIRA, S. L., DA SILVA, F. E., MENDES, L. V., CUNHA VDO, M., LIMA, L. M., MONTAGNOLI, T. L., CARUSO-NEVES, C., FERRAZ, E. B., TESCH, R., NASCIMENTO, J. H., SANT'ANNA, C. M., FRAGA, C. […]
Compound,pEC50,Effectiveness (Emax) (%)
"CC[C@H](C)[C@H](NC(=O)[C@H](Cc1c[nH]c2ccccc12)NC(=O)[C@H](Cc1ccccc1)NC(C)=O)C(=O)N[C@@H](C)C(=O)N[C@@H](Cc1c[nH]c2ccccc12)C(=O)N[C@@H](Cc1ccc(O)cc1)C(=O)N[C@@H](CCCCN)C(=O)N[C@@H](CC(C)C)C(=O)N[C@@H](C)C(N)=O [SEQ ID NO: 19, Ac-Phe-Trp-Ile-Ala-Trp-Tyr-Lys-Leu-Ala-NH2] (Ac-FWIAWYKLA-NH2)",6.9 ± 6.55,24% ± 9.71
"CC[C@H](C)[C@H](NC(C)=O)C(=O)N[C@@H](C)C(=O)N[C@@H](Cc1c[nH]c2ccccc12)C(=O)N[C@@H](Cc1ccc(O)cc1)C(=O)N[C@@H](CCCCN)C(N)=O [SEQ ID NO: 24, Ac-Ile-Ala-Trp-Tyr-Lys-NH2] (Ac-IAWYK-NH2)",4.4 ± 6.4,5% ± 5.96
